Assay [1] has as its target T1, Recombinant wild type LRRK2 protein (Homo sapiens, UniProt Q5S007).
T1 construct: purchased Life Technologies PR8604B
The assay can be described thus: LanthaScreen Kinase Activity Assay (TR-FRET), wild type LRRK2. The assay is classed as biochemical. The conditions noted are these: 25 μM ATP, 400 nM LRRKtide, 2.9 nM kinase, 60 min at room temperature, read-out: LRRK2 WT IC50. The method, then: (§1) LRRK2 kinase activity was measured using a LanthaScreen™ Kinase Activity Assay from ThermoFisher Scientific. Recombinant wild type or G2019S-LRRK2 protein (Life Technologies, PR8604B or PV4881, respectively), was incubated with a fluorescein-labeled peptide substrate called LRRKtide that is based upon ezrin/radixin/moesin (ERM) (Life Technologies, PV4901) in the presence of ATP and serially diluted compound. After an incubation period of 1 hr, the phosphotransferase activity was stopped and a terbium-labelled anti-pERM antibody (Life Technologies, PV4899) was added to detect the phosphorylation of LRRKtide by measuring the time resolved-Forster resonant energy transfer (TR-FRET) signal from the terbium label on the antibody to the fluorescein tag on LRRKtide, expressed as the 520 nm/495 nm emission ratio. Compound-dependent inhibition of the TR-FRET signal was used to generate a concentration-response curve for IC50 determination.
(§2) The assay was carried out under the following protocol conditions: 1 mM compound in DMSO was serially diluted 1:3, 11 points in DMSO with a Biomek FX and 0.1 μL of the diluted compound was subsequently stamped into the assay plate (384-well format Lumitrac 200, Greiner, 781075) with an Echo Labcyte such that the final compound concentration in the assay was 10 μM to […]. Subsequently, 5 μL of 2× kinase solution (2.9 nM final concentration) was added to the assay plate in assay buffer composed of 50 mM Tris pH 8.5 (Sigma, T6791), 5 mM MgCl2 (Fluka, 63020), 1 mM EGTA (Sigma, E3889), 0.01% BRIJ-35 (Sigma, P1254) and 2 mM DTT. The reaction was started by addition of 2×ATP/LRRKtide solution in assay buffer such that the final concentration was 400 nM LRRKtide and 25 μM ATP. After 60 min incubation at room temperature, the reaction was stopped by addition of […] containing a final concentration of 2 nM anti-pERM antibody and 10 mM EDTA. After a 30 min incubation at RT, the TR-FRET signal was measured on a Wallac 2104 EnVision® multilabel reader at an excitation wavelength of 340 nm and reading emission at 520 nm and 495 nm. The ratio of the 520 nm and 495 nm emission was used to analyze the data.
On the technique in general: TR-FRET usually uses a lanthanide donor and a delayed reading to cut background.

Assay [2] concerns the target T2, Recombinant G2019S-LRRK2 protein (Homo sapiens, UniProt Q5S007, G2019S).
T2 construct: purchased Life Technologies PV4881
As to the kind of experiment: LanthaScreen Kinase Activity Assay (TR-FRET), G2019S-LRRK2. In kind it is biochemical. Particulars: class symbols; 25 μM ATP, 400 nM LRRKtide, 2.9 nM kinase, 60 min at room temperature. As for the experimental part: as §1, §2

[3] abbreviates: numeric bound instead of class symbol.

Read-outs that look alike come from different tables or passages of the source.

T2 sequence (Q5S007 whole entry G2019S): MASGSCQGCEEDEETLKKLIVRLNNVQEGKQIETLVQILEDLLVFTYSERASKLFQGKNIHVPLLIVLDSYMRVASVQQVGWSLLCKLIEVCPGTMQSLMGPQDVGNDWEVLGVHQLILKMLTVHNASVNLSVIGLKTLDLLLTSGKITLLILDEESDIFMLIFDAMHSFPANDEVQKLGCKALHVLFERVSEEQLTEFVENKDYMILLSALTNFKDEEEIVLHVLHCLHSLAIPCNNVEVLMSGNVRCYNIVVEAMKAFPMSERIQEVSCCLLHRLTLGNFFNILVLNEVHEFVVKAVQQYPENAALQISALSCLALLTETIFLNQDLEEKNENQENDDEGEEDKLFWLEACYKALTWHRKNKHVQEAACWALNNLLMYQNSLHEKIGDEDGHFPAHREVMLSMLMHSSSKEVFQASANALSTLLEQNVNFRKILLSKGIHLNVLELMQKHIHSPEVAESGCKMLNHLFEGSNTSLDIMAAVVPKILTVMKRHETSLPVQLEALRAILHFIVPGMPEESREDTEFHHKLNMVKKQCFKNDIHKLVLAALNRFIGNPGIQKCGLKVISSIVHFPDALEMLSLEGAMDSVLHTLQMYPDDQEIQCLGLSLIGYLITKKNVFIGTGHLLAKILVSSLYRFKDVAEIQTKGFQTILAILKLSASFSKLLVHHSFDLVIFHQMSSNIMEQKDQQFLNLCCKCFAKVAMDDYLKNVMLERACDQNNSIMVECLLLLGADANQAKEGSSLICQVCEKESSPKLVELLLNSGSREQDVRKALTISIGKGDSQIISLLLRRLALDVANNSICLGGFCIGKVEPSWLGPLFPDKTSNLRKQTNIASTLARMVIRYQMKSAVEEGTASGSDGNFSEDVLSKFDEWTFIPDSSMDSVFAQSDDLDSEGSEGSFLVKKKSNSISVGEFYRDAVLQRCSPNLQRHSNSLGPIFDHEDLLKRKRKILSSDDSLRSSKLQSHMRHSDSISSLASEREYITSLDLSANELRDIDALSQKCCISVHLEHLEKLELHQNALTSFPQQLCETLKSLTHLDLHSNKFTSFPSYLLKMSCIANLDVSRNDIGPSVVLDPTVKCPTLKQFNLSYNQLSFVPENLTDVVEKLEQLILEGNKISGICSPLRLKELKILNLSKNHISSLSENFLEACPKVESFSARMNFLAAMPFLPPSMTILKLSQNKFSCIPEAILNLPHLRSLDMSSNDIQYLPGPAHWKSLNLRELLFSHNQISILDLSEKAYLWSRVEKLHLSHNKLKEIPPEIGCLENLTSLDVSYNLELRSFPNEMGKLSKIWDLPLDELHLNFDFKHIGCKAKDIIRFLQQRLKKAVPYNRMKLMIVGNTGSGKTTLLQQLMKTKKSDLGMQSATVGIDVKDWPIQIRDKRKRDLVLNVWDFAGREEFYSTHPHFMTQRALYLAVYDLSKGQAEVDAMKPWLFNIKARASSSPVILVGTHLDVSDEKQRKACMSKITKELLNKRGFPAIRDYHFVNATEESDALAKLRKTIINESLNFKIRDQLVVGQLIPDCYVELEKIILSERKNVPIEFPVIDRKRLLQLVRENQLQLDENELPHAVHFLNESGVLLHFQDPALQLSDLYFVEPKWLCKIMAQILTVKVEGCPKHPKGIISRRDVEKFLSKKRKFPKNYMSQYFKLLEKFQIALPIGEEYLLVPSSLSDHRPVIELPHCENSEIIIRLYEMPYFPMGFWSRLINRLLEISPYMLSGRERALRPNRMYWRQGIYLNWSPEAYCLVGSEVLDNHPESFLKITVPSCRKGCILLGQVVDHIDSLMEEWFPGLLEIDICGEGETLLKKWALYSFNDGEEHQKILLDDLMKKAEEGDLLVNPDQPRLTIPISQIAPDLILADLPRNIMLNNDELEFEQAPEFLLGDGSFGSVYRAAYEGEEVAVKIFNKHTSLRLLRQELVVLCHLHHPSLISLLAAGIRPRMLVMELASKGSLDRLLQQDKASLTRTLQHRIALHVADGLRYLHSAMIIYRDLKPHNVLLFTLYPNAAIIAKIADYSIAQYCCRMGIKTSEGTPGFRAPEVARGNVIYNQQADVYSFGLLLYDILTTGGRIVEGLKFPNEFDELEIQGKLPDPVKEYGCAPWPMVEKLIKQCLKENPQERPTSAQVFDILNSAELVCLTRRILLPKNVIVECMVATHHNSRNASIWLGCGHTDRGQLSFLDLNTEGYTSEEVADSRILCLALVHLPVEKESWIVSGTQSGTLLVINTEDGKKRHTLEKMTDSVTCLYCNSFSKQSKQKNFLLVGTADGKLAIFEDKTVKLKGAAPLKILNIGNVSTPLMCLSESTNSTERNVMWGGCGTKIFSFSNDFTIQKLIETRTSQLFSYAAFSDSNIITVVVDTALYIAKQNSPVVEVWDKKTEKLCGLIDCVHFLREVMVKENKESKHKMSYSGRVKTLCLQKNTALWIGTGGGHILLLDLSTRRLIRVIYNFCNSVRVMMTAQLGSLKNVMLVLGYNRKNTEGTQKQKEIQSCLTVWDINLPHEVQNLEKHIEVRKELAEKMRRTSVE
T1 sequence (Q5S007 whole entry): as the sequence (Q5S007 whole entry G2019S) above, with S2019G counted along it

The IC50 is the concentration that inhibits the measured activity by half. For the molecule `Cn1ncc2c(F)c(C(=O)Nc3ccc4[nH]nc(-c5ccccc5OC(F)(F)F)c4c3)c(F)cc21` [Example 93, 4,6-Difluoro-1-methyl-N-(3-(2-(trifluoromethoxy)phenyl)-1H-indazol-5-yl)-1H-indazole-5-carboxamide], the 50% inhibitory concentration (IC50) was above 10000 nM in assay [1] (setting [3]) and 1000 to 10000 nM in assay [2].
As to `O=C(Nc1ccc2[nH]nc(-c3ccoc3)c2c1)c1nc2cnccc2s1` [Example 170, N-(3-(Furan-3-yl)-1H-indazol-5-yl)thiazolo[4,5-c]pyridine-2-carboxamide], the half-inhibitory concentration (IC50) in assay [1] (class symbols) is 100 to 1000 nM; in assay [2] it was at most 100 nM.
With `Cn1nccc1-c1n[nH]c2ccc(NC(=O)c3c(F)cc4c(cnn4C)c3F)cc12` [Example 96, 4,6-Difluoro-1-methyl-N-(3-(1-methyl-1H-pyrazol-5-yl)-1H-indazol-5-yl)-1H-indazole-5-carboxamide], the IC50 in assay [1] (class symbols) is 100 to 1000 nM; in assay [2], at most 100 nM.
Regarding `Cc1cc(-c2n[nH]c3ccc(NC(=O)c4c(F)cc5c(cnn5C)c4F)cc23)ccn1` [Example 37, 4,6-Difluoro-1-methyl-N-(3-(2-methylpyridin-4-yl)-1H-indazol-5-yl)-1H-indazole-5-carboxamide], the half-inhibitory concentration (IC50) in assay [1] (class symbols) and in assay [2] was at most 100 nM in each case.
As for `Cc1ncc(-c2n[nH]c3ccc(NC(=O)c4c(F)cc5c(cnn5C)c4F)cc23)s1` [Example 95, 4,6-Difluoro-1-methyl-N-(3-(2-methylthiazol-5-yl)-1H-indazol-5-yl)-1H-indazole-5-carboxamide], the IC50 in assay [1] (class symbols) and in assay [2] was at most 100 nM in each case.
Regarding `Cc1oncc1-c1n[nH]c2ccc(NC(=O)c3c(F)cc4c(cnn4C)c3F)cc12` [Example 29, 4,6-Difluoro-1-methyl-N-(3-(5-methylisoxazol-4-yl)-1H-indazol-5-yl)-1H-indazole-5-carboxamide], the IC50 was 100 to 1000 nM in assay [1] (class symbols) and at most 100 nM in assay [2].
`Cc1cn2nc(C(=O)Nc3ccc4[nH]nc(-c5ccoc5)c4c3)cc2c(C)n1` [Example 163, N-(3-(Furan-3-yl)-1H-indazol-5-yl)-4,6-dimethylpyrazolo[1,5-a]pyrazine-2-carboxamide]: the IC50 in assay [1] (class symbols) and in assay [2] was at most 100 nM in each case.
For the molecule `CCCc1n[nH]c2ccc(NC(=O)c3c(F)cc4c(cnn4C)c3F)cc12` [Example 99, 4,6-Difluoro-1-methyl-N-(3-propyl-1H-indazol-5-yl)-1H-indazole-5-carboxamide], the values for the half-inhibitory concentration (IC50) in assay [1] (class symbols) and in assay [2] were 100 to 1000 nM and at most 100 nM, respectively.
For `O=C(Nc1ccc2[nH]nc(-c3ccoc3)c2c1)c1ccc2nsnc2c1` [Example 120, N-(3-(Furan-3-yl)-1H-indazol-5-yl)benzo[c][1,2,5]thiadiazole-5-carboxamide], the IC50 in assay [1] (class symbols) is 100 to 1000 nM; in assay [2], at most 100 nM.
The like results for `Cn1ncc2c(F)c(C(=O)Nc3cc4c(-c5ccoc5)n[nH]c4cc3F)c(F)cc21` [Example 144, 4,6-Difluoro-N-(6-fluoro-3-(furan-3-yl)-1H-indazol-5-yl)-1-methyl-1H-indazole-5-carboxamide] were, in that order, at most 100 nM and at most 100 nM.
The corresponding values for `Cc1cn2cncc2cc1C(=O)Nc1ccc2[nH]nc(-c3ccccc3)c2c1` [Example 52, 6-Methyl-N-(3-phenyl-1H-indazol-5-yl)imidazo[1,5-a]pyridine-7-carboxamide] are at most 100 nM and at most 100 nM.
Take `Cc1cc2cnsc2nc1C(=O)Nc1ccc2[nH]nc(-c3cnco3)c2c1` [Example 168, 5-Methyl-N-(3-(oxazol-5-yl)-1H-indazol-5-yl)isothiazolo[5,4-b]pyridine-6-carboxamide]: the concentration for half-maximal inhibition (IC50) in assay [1] (class symbols) and in assay [2] was at most 100 nM in each case.
As to `Cn1ncc2c(F)c(C(=O)Nc3cc4c(-c5ccccc5)n[nH]c4cc3F)c(F)cc21` [Example 143, 4,6-Difluoro-N-(6-fluoro-3-phenyl-1H-indazol-5-yl)-1-methyl-1H-indazole-5-carboxamide], the 50% inhibitory concentration (IC50) in assay [1] (class symbols) was 100 to 1000 nM; in assay [2], at most 100 nM.
The like results for `Cc1cc2[nH]nnc2c(C)c1C(=O)Nc1ccc2[nH]nc(C)c2c1` [Example 11, 4,6-Dimethyl-N-(3-methyl-1H-indazol-5-yl)-1H-benzo[d][1,2,3]triazole-5-carboxamide] were, in that order, 1000 to 10000 nM and 100 to 1000 nM.
The like results for `CC1(C)c2nncn2CCN1C(=O)Nc1ccc2[nH]nc(-c3ccoc3)c2c1` [Example 172, N-(3-(Furan-3-yl)-1H-indazol-5-yl)-8,8-dimethyl-5,6-dihydro-[1,2,4]triazolo[4,3-a]pyrazine-7(8H)-carboxamide] were, in that order, 100 to 1000 nM and 100 to 1000 nM.
The like results for `COc1cccc(-c2n[nH]c3ccc(NC(=O)c4c(F)cc5c(cnn5C)c4F)cc23)c1` [Example 84, 4,6-Difluoro-N-(3-(3-methoxyphenyl)-1H-indazol-5-yl)-1-methyl-1H-indazole-5-carboxamide] were, in that order, at most 100 nM and at most 100 nM.
For `COc1ccccc1-c1n[nH]c2ccc(NC(=O)c3c(C)cc4cnnn4c3C)cc12` [Example 46, N-(3-(2-Methoxyphenyl)-1H-indazol-5-yl)-5,7-dimethyl-[1,2,3]triazolo[1,5-a]pyridine-6-carboxamide], the IC50 is 100 to 1000 nM in assay [1] (class symbols) and at most 100 nM in assay [2].
With `Cc1cc2cnnn2cc1C(=O)Nc1ccc2[nH]nc(-c3ccccc3)c2c1` [Example 43, 5-Methyl-N-(3-phenyl-1H-indazol-5-yl)-[1,2,3]triazolo[1,5-a]pyridine-6-carboxamide], the 50% inhibitory concentration (IC50) in assay [1] (class symbols) and in assay [2] was at most 100 nM in each case.
Consider `Cc1n[nH]c2ccc(NC(=O)c3cc4nn[nH]c4cc3C(F)(F)F)cc12` [Example 10, N-(3-Methyl-1H-indazol-5-yl)-6-(trifluoromethyl)-1H-benzo[d][1,2,3]triazole-5-carboxamide], for which the IC50 in assay [1] (setting [3]) is above 10000 nM; in assay [2], 1000 to 10000 nM.
For `O=C(Nc1ccc2[nH]nc(-c3ccoc3)c2c1)c1ccc2cnsc2c1` [Example 156, N-(3-(Furan-3-yl)-1H-indazol-5-yl)benzo[d]isothiazole-6-carboxamide], the IC50 in assay [1] (class symbols) and in assay [2] was at most 100 nM throughout.
In the case of `Cc1cn2cnnc2c(C)c1C(=O)Nc1ccc2[nH]nc(C)c2c1` [Example 58, 6,8-Dimethyl-N-(3-methyl-1H-indazol-5-yl)-[1,2,4]triazolo[4,3-a]pyridine-7-carboxamide], the IC50 in assay [1] (class symbols) is 1000 to 10000 nM; in assay [2], 100 to 1000 nM.
As to `Cn1ncc2c(F)c(C(=O)Nc3ccc4[nH]nc(N5CCCC5)c4c3)c(F)cc21` [Example 108, 4,6-Difluoro-1-methyl-N-(3-(pyrrolidin-1-yl)-1H-indazol-5-yl)-1H-indazole-5-carboxamide], the IC50 in assay [1] (class symbols) lay in the range of 1000 to 10000 nM; in assay [2], 100 to 1000 nM.
The corresponding values for `O=C(Nc1ccc2[nH]nc(-c3ccoc3)c2c1)c1ccn2nccc2c1` [Example 117, N-(3-(Furan-3-yl)-1H-indazol-5-yl)pyrazolo[1,5-a]pyridine-5-carboxamide] are 100 to 1000 nM and at most 100 nM.
The like results for `Cc1cc2cnnn2c(C)c1C(=O)Nc1ccc2[nH]nc(-c3ccccc3F)c2c1` [Example 44, N-(3-(2-Fluorophenyl)-1H-indazol-5-yl)-5,7-dimethyl-[1,2,3]triazolo[1,5-a]pyridine-6-carboxamide] were, in that order, 100 to 1000 nM and at most 100 nM.
The like results for `Cn1ncc2c1CCC(C(=O)Nc1ccc3[nH]nc(-c4ccoc4)c3c1)C2` (single isomer, unassigned) [Example 161a] were, in that order, at most 100 nM and at most 100 nM.
Turning to `O=C(Nc1ccc2[nH]nc(-c3ccccc3)c2c1)c1cc2[nH]ncc2cc1Br` [Example 24, 5-Bromo-N-(3-phenyl-1H-indazol-5-yl)-1H-indazole-6-carboxamide], the IC50 in assay [1] (class symbols) and in assay [2] was at most 100 nM each time.
As to `Cn1ncc2c(F)c(C(=O)Nc3ccc4[nH]nc(N5CC(C(=O)O)C5)c4c3)c(F)cc21` [Example 142, 1-(5-(4,6-difluoro-1-methyl-1H-indazole-5-carboxamido)-1H-indazol-3-yl)azetidine-3-carboxylic acid], the IC50 was above 10000 nM in assay [1] (setting [3]) and 1000 to 10000 nM in assay [2].

Values taken from patent publication US20220162192A1 (ESCAPE Bio, Inc., priority 2019, published 2022).
